Laboratory results reported in paper PMC12463058, “SF3A3 Drives Tumorigenesis in Endometrial Cancer by Enhancing c‐FOS Expression and Represents a Potential Therapeutic Target” (Advanced Science, 2025).

Target: T1, splicing factor 3A subunit 3 (SF3A3) (Homo sapiens, UniProt Q12874)
T1 sequence (Q12874 1-501): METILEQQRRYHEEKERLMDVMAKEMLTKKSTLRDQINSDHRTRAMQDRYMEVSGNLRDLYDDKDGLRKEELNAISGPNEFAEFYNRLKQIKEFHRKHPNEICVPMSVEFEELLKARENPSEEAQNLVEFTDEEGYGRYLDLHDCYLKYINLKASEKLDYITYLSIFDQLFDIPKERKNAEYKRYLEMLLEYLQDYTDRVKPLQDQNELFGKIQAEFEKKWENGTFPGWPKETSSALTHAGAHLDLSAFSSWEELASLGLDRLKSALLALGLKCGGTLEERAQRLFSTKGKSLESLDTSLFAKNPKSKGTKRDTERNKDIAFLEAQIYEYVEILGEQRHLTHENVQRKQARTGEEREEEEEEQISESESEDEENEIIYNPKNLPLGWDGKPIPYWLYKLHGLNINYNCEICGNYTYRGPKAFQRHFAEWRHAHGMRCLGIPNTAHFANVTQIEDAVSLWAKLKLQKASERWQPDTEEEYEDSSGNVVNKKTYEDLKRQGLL
Test: SPR (Biacore 8K, immobilized purified human SF3A3, steady-state affinity); supported by pulldown mass spectrometry
Format: binding

SMILES: S=C=NCCc1ccccc1 [PEITC]
- Kd: 10.1 µM
